Assay results published in patent publication US9452980B2, “Substituted benzamides” (Hoffmann-La Roche Inc., priority 2009, dated 2016).
Counter-ions that a name gives are not always drawn. Like-named read-outs stand apart in the source and are kept apart here.

Legend:
rat TAAR1 = rat TAAR1 (Rattus norvegicus (Rat), UniProt Q923Y9); assay: Radioligand binding assay on rat TAAR1; conditions: read-out: Ki (μM) rat
In short: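 Membranes from HEK293 cells stably expressing rat TAAR1, with Kd checked per batch by saturation. Competition with ³H-(S)-4-[(ethyl-phenyl-amino)-methyl]-4,5-dihydro-oxazol-2-ylamine, compounds 10 pM–10 μM in duplicate, 1 hr at 4 °C. Filtration then scintillation counting; nonspecific binding defined with 10 μM unlabeled ligand.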

mouse TAAR1 = mouse TAAR1 (Mus musculus (Mouse), UniProt Q923Y8); assay: Radioligand binding assay on mouse TAAR1; conditions: read-out: Ki (μM) mouse
In short: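 Displacement of the tritiated oxazol-2-ylamine radioligand was measured by filtration and scintillation counting after 1 h incubation at 4 °C. Test concentrations ran 10 pM–10 μM in duplicate, with 10 μM cold ligand giving nonspecific binding. The receptor source was membranes of a stable mouse TAAR1 HEK293 line.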

[1] = rat TAAR1, HEK-293 membranes, second value of cell mouse/rat
[2] = mouse TAAR1, HEK-293 membranes, first value of cell mouse/rat

rat TAAR1, sequence (Q923Y9 whole entry): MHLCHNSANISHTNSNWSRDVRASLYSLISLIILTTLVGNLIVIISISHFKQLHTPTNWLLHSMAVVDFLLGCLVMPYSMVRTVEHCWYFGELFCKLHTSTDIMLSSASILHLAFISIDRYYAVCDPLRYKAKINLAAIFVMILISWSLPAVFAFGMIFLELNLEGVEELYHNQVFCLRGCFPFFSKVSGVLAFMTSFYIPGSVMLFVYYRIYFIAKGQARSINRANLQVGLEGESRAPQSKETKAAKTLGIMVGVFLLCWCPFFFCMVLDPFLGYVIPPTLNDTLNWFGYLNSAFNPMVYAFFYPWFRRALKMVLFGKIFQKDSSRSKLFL
mouse TAAR1, sequence (Q923Y8 whole entry): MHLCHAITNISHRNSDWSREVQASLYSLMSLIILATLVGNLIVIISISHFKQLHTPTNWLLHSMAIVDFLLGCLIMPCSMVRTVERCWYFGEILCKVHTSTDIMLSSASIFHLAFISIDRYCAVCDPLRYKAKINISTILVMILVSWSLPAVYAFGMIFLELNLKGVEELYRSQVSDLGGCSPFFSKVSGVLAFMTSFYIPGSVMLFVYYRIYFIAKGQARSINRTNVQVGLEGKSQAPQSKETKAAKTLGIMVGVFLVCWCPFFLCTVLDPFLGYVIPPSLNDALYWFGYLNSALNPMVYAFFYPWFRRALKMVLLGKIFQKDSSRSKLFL

Structure (SMILES) | Ki (rat TAAR1; [1]) [µM] | Ki (mouse TAAR1; [2]) [µM] | Ki (rat TAAR1) [µM] | Ki (mouse TAAR1) [µM]
Cc1ccc(CNC(=O)Nc2ccc(C3CNCCO3)cc2)cc1 (racemic) [Example 306, (RS)-1-(4-Methylbenzyl)-3-(4-(morpholin-2-yl)phenyl)urea hydrochloride] | 0.0038 | 0.0266 | – | –
O=C(Nc1ccc(C2CNCCO2)cc1)NC1CCCCC1 (racemic) [Example 307, (RS)-1-cyclohexyl-3-(4-(morpholin-2-yl)phenyl)urea hydrochloride] | 0.0305 | 0.0778 | – | –
CSc1ccc(C(=O)Nc2ccc(C3CNCCO3)cc2)cc1 (stereo in doubt) [Example 267, (S)-4-(Methylthio)-N-(4-(morpholin-2-yl)phenyl)benzamide hydrochloride] | – | 0.0476 | 0.0011 | –
CN1CCN(c2ccc(NC(=O)Nc3ccc(Cl)c(Cl)c3)cc2)CC1 [Example 2, 1-(3,4-Dichloro-phenyl)-3-[4-(4-methyl-piperazin-1-yl)-phenyl]-urea] | 0.001 | – | – | 0.0006
CN1CCN(c2ccc(NC(=O)Nc3ccc(-c4cnco4)cc3)cc2)CC1 [Example 4, 1-[4-(4-Methyl-piperazin-1-yl)-phenyl]-3-(4-oxazol-5-yl-phenyl)-urea] | 0.0837 | 0.0189 | – | –
O=C(Nc1ccc(C2CCNCC2)cc1)c1ccc(Cl)cc1 [Example 57, 4-Chloro-N-(4-piperidin-4-yl-phenyl)-benzamide hydrochloride] | 0.0005 | 0.0055 | – | –
O=C(Nc1ccc(N2CCNCC2)cc1)c1ccc(Cl)cc1 [Example 59, 4-Chloro-N-(4-piperazin-1-yl-phenyl)-benzamide hydrochloride] | 0.0014 | 0.0256 | – | –
O=C(Nc1ccc([C@@H]2CCCNC2)cc1)c1ccc(Cl)cc1 [Example 112, 4-Chloro-N—((S)-4-piperidin-3-yl-phenyl)-benzamide] | 0.0018 | 0.211 | – | –
O=C(Nc1ccc([C@H]2CCCNC2)cc1)c1ccc(Cl)cc1 [Example 113, 4-Chloro-N—((R)-4-piperidin-3-yl-phenyl)-benzamide] | 0.004 | 0.0095 | – | –
O=C(Nc1ccc([C@@H]2CNCCO2)cc1)c1ccc(Cl)cc1 [Example 143, 4-Chloro-N—((R)-4-morpholin-2-yl-phenyl)-benzamide hydrochloride] | – | – | 0.0006 | 0.0054
O=C(Nc1ccc([C@H]2CNCCO2)cc1)c1ccc(Cl)cc1 [Example 144, 4-Chloro-N—((S)-4-morpholin-2-yl-phenyl)-benzamide hydrochloride] | – | – | 0.0011 | 0.0188
O=C(Nc1ccc([C@H]2CCCNC2)cc1)c1ccc(Cl)c(Cl)c1 [Example 150, 3,4-Dichloro-N—((R)-4-piperidin-3-yl-phenyl)-benzamide hydrochloride] | 0.0004 | – | – | 0.002
O=C(Nc1ccc([C@H]2CCCNC2)cc1)c1cccc(Cl)c1 [Example 151, (R)-3-Chloro-N-(4-(piperidin-3-yl)phenyl)benzamide hydrochloride] | 0.0008 | – | – | 0.011
O=C(Nc1ccc([C@@H]2CCCNC2)cc1)c1ccc(Cl)c(Cl)c1 [Example 152, 3,4-Dichloro-N—((S)-4-piperidin-3-yl-phenyl)-benzamide hydrochloride] | 0.0003 | – | – | 0.0086
O=C(Nc1ccc([C@@H]2CCCNC2)cc1)c1cccc(Cl)c1 [Example 153, (S)-3-Chloro-N-(4-(piperidin-3-yl)phenyl)benzamide hydrochloride] | 0.0005 | – | – | 0.0715
O=C(Nc1ccc([C@H]2CCCNC2)cc1)c1ccc(Cl)nc1 [Example 161, (R)-6-Chloro-N-(4-(piperidin-3-yl)phenyl)nicotinamide hydrochloride] | 0.0101 | – | – | 0.0403
O=C(Nc1ccc([C@@H]2CCCNC2)cc1)c1ccc(Cl)nc1 [Example 162, (S)-6-Chloro-N-(4-(piperidin-3-yl)phenyl)nicotinamide hydrochloride] | 0.0092 | – | – | 0.231
O=C(Nc1ccc([C@H]2CCCNC2)cc1)c1ccc(Cl)cn1 [Example 167, (R)-5-Chloro-N-(4-(piperidin-3-yl)phenyl)picolinamide hydrochloride] | 0.0048 | – | – | 0.0271
O=C(Nc1ccc([C@@H]2CCCNC2)cc1)c1ccc(Cl)cn1 [Example 168, (S)-5-Chloro-N-(4-(piperidin-3-yl)phenyl)picolinamide hydrochloride] | 0.0026 | – | – | 0.608
Cc1ccc(C(=O)Nc2ccc([C@@H]3CNCCO3)cc2)cc1 [Example 195, (R)-4-Methyl-N-(4-(morpholin-2-yl)phenyl)benzamide hydrochloride] | 0.0022 | 0.0135 | – | –

Structure (SMILES) | Ki (rat TAAR1; [1]) [µM] | Ki (mouse TAAR1; [2]) [µM] | Ki (rat TAAR1) [µM] | Ki (mouse TAAR1) [µM]
Cc1ccc(C(=O)Nc2ccc([C@H]3CNCCO3)cc2)cc1 [Example 196, (S)-4-Methyl-N-(4-(morpholin-2-yl)phenyl)benzamide hydrochloride] | 0.001 | 0.0524 | – | –
COc1cc(C(=O)Nc2ccc([C@H]3CCCNC3)cc2)ccc1Cl [Example 200, (R)-4-Chloro-3-methoxy-N-(4-(piperidin-3-yl)phenyl)benzamide hydrochloride] | 0.0022 | 0.0039 | – | –
COc1cc(C(=O)Nc2ccc([C@@H]3CCCNC3)cc2)ccc1Cl [Example 201, (S)-4-Chloro-3-methoxy-N-(4-(piperidin-3-yl)phenyl)benzamide hydrochloride] | 0.0022 | 0.113 | – | –
COc1ccc(C(=O)Nc2ccc([C@H]3CCCNC3)cc2)cc1Cl [Example 202, (R)-3-Chloro-4-methoxy-N-(4-(piperidin-3-yl)phenyl)benzamide hydrochloride] | – | – | 0.0015 | 0.0087
COc1ccc(C(=O)Nc2ccc([C@@H]3CCCNC3)cc2)cc1Cl [Example 203, (S)-3-Chloro-4-methoxy-N-(4-(piperidin-3-yl)phenyl)benzamide hydrochloride] | – | – | 0.0014 | 0.0603
O=C(Nc1ccc([C@H]2CCNC2)cc1)c1ccc(OCC(F)(F)F)nc1 [Example 204, (R)—N-(4-(pyrrolidin-3-yl)phenyl)-6-(2,2,2-trifluoroethoxy)nicotinamide hydrochloride] | 0.0043 | 0.005 | – | –
O=C(Nc1ccc([C@@H]2CCNC2)cc1)c1ccc(OCC(F)(F)F)nc1 [Example 205, (S)—N-(4-(Pyrrolidin-3-yl)phenyl)-6-(2,2,2-trifluoroethoxy)nicotinamide hydrochloride] | 0.0035 | 0.0034 | – | –
O=C(Nc1ccc([C@@H]2CNCCO2)cc1)c1ccc(Cl)nc1 [Example 207, (R)-6-Chloro-N-(4-(morpholin-2-yl)phenyl)nicotinamide hydrochloride] | – | 0.0525 | 0.0042 | –
O=C(Nc1ccc([C@H]2CNCCO2)cc1)c1ccc(Cl)nc1 [Example 208, (S)-6-Chloro-N-(4-(morpholin-2-yl)phenyl)nicotinamide hydrochloride] | – | 0.0762 | 0.0044 | –
O=C(Nc1ccc([C@H]2CCCNC2)cc1)c1ccc(OCC(F)(F)F)nc1 [Example 223, (R)—N-(4-(Piperidin-3-yl)phenyl)-6-(2,2,2-trifluoroethoxy)nicotinamide hydrochloride] | – | 0.0016 | 0.0018 | –
O=C(Nc1ccc([C@@H]2CCCNC2)cc1)c1ccc(OCC(F)(F)F)nc1 [Example 224, (S)—N-(4-(Piperidin-3-yl)phenyl)-6-(2,2,2-trifluoroethoxy)nicotinamide hydrochloride] | – | 0.051 | 0.0029 | –
Cc1ccc(C(=O)Nc2ccc([C@@H]3CCCNC3)cc2)cc1Cl [Example 225, (S)-3-Chloro-4-methyl-N-(4-(piperidin-3-yl)phenyl)benzamide hydrochloride] | 0.0006 | – | – | 0.0189
Cc1cc(C(=O)Nc2ccc([C@@H]3CCCNC3)cc2)ccc1Cl [Example 226, (S)-4-Chloro-3-methyl-N-(4-(piperidin-3-yl)phenyl)benzamide hydrochloride] | – | – | 0.001 | 0.0555
Cc1ccc(C(=O)Nc2ccc([C@@H]3CCCNC3)cc2)cc1C [Example 227, (S)-3,4-Dimethyl-N-(4-(piperidin-3-yl)phenyl)benzamide hydrochloride] | 0.0012 | – | – | 0.177
O=C(Nc1ccc([C@@H]2CNCCO2)cc1)c1ccc(Cl)cc1F [Example 229, (R)-4-Chloro-2-fluoro-N-(4-(morpholin-2-yl)phenyl)benzamide hydrochloride] | 0.0019 | – | – | 0.0218
O=C(Nc1ccc([C@@H]2CCCNC2)cc1)c1cccc(C(F)(F)F)c1 [Example 234, (S)—N-(4-(Piperidin-3-yl)phenyl)-3-(trifluoromethyl)benzamide hydrochloride] | – | – | 0.001 | 0.0217
O=C(COc1ccc(Cl)cc1)Nc1ccc([C@@H]2CCCNC2)cc1 [Example 235, (S)-2-(4-Chlorophenoxy)-N-(4-(piperidin-3-yl)phenyl)acetamide hydrochloride] | 0.0006 | – | – | 0.0334
CSc1ccc(C(=O)Nc2ccc([C@@H]3CCCNC3)cc2)cc1 [Example 236, (S)-4-(Methylthio)-N-(4-(piperidin-3-yl)phenyl)benzamide hydrochloride] | 0.0014 | 0.214 | – | –
CCSc1ccc(C(=O)Nc2ccc([C@@H]3CCCNC3)cc2)cc1 [Example 237, (S)-4-(Ethylthio)-N-(4-(piperidin-3-yl)phenyl)benzamide hydrochloride] | 0.0008 | 0.0677 | – | –
